{"source": "patent US10342794B2", "about": "“Substituted imidazo[1,2-a]pyrazines as Syk inhibitors” (Gilead Sciences, Inc., priority 2013, dated 2019)", "key": {"[1]": {"test_system": "basophils in human whole blood (CD63 expression)", "assay": "384-Well HTBS Whole Blood CD63 Basophil Assay (25% blood)", "assay_type": "cell-based", "details": "for IC50: comparison table with known compounds, human whole blood basophils, head prints IC50; for EC50: human whole blood (25% blood), anti-FceRI mAb activation, CD63 on CCR3 positive cells", "description": "Syk activity was assessed in relation to reduced activation of basophils as measured by the expression of CD63 in a human whole blood basophil cellular assay (25% blood). Basophil activation was measured in human whole blood using the Flow CAST kit (Buhlmann Laboratories AG, Baselstrasse, Switzerland) following the protocol provided by the manufacturer with minor modifications. Fresh human whole blood in heparin was collected and delivered same day (AllCells, Emeryville, Calif.). Whole blood samples were incubated with either DMSO (1% final) or serial diluted compounds in DMSO for 60 minutes at 37° C. Basophils were activated using the anti-FceRI mAb and stained with anti-CD63-FITC and anti-CCR3-PE for 20 minutes at 37° C. (per well: 50 μL of whole blood was mixed with 113 μL of stimulation buffer, 8.5 μL anti-FceRI mAb, 8.5 μL Ab stain CCR3-PE/CD63-FITC). Cells were centrifuged at 1000×g for 18 minutes and 150 μL/well of supernatant removed. Red blood cells were lysed and cells fixed by 2 rounds of cell lysing: resuspending cell pellets with 150 μL/well 1× lysis buffer, incubating at room temperature for 10 minutes, and collecting cell pellets by centrifuging for 1200 rpms for 5 minutes. Cells were washed with 150 µL/well wash buffer twice, and resuspended in a final volume of 75 µL/well of wash buffer for either immediate flow cytometery analysis or overnight incubation at 4° C. followed by flow cytometry analysis. Degranulation (basophil activation) was detected by CD63 surface expression on CCR3 positive cells. The percent CD63 positive cells within the gated basophil population were determined and normalized to the DMSO (negative control) and control compound (positive control)."}, "human hepatocytes": {"test_system": "human hepatocytes", "assay": "Human Hepatocyte Stability Assay (predicted hepatocyte clearance)", "assay_type": "in vitro ADME", "description": "The human […] stability of the compounds as predicted hepatocyte clearance in L/hr/kg was assessed. Compounds to be tested were diluted to 200 μM (4 μl of 10 mM DMSO stock into 196 μl ACN:H2O (50:50). Propranolol was used as a positive control, and buffer only without hepatocytes as 0% control. These were further diluted 4 μl with 891 μl KHB buffer (InVitroGRO catalog number Z99074) to provide 2× dosing solution. To each well of 24 well plate, 250 μl of the 2× dosing solution was added to each well with 250 μl of hepatocytes cells (1×10^6 viable cells/ml per well) or KHB for control samples to achieve a final compound concentration of 1 μM during incubation. The final solvent concentration was 0.01% DMSO and 0.25% ACN. The culture plate was placed on a rocker and incubated at 37° C., 5% CO2. Samples were collected at time 0, 1, 3, and 6 hours. The loss of parent compound was determined using LC-MS methods against a standard curve."}, "[2]": {"details": "comparison table with known compounds, predicted hepatocyte clearance (L/hr/kg)"}, "[3]": {"details": "predicted hepatocyte clearance, human hepatocytes, 1 μM compound, 0-6 hours"}}}
{"compound": "Cc1c(-c2cncc(N)n2)nc(Nc2ccc(N3CCN(C4COC4)CC3)cc2)c2nccn12", "note": "[Ex.-4, 6-(6-aminopyrazin-2-yl)-5-methyl-N-(4-(4-(oxetan-3-yl)piperazin-1-yl)phenyl)imidazo[1,2-a]pyrazin-8-amine]", "values": [{"measurement": "IC50", "setting": "[1]", "value": 157, "unit": "nM"}, {"measurement": "EC50", "setting": "[1]", "value": 157, "unit": "nM"}, {"measurement": "Hheps CL", "setting": "human hepatocytes; [2]", "value": 1.3, "unit": "mL/min/kg"}, {"measurement": "Hheps CL", "setting": "human hepatocytes; [3]", "value": 1.3, "unit": "mL/min/kg"}]}
{"compound": "Nc1cncc(-c2cn3ccnc3c(Nc3ccc(N4CCO[C@@H](CO)C4)cc3)n2)n1", "note": "[Ex.-3, (R)-(4-(4-((6-(6-aminopyrazin-2-yl)imidazo[1,2-a]pyrazin-8-yl)amino)phenyl)morpholin-2-yl)methanol]", "values": [{"measurement": "IC50", "setting": "[1]", "value": 63, "unit": "nM"}, {"measurement": "EC50", "setting": "[1]", "value": 63, "unit": "nM"}, {"measurement": "Hheps CL", "setting": "human hepatocytes; [2]", "value": 1.5, "unit": "mL/min/kg"}, {"measurement": "Hheps CL", "setting": "human hepatocytes; [3]", "value": 1.5, "unit": "mL/min/kg"}]}
{"compound": "Nc1cncc(-c2cn3ccnc3c(Nc3ccc(N4CCN(CC(CO)CO)CC4)cc3)n2)n1", "note": "[Ex.-6, 2-((4-(4-((6-(6-aminopyrazin-2-yl)imidazo[1,2-a]pyrazin-8-yl)amino)phenyl)piperazin-1-yl)methyl)propane-1,3-diol]", "values": [{"measurement": "IC50", "setting": "[1]", "value": 128, "unit": "nM"}, {"measurement": "EC50", "setting": "[1]", "value": 128, "unit": "nM"}, {"measurement": "Hheps CL", "setting": "human hepatocytes; [2]", "value": 1.3, "unit": "mL/min/kg"}, {"measurement": "Hheps CL", "setting": "human hepatocytes; [3]", "value": 1.3, "unit": "mL/min/kg"}]}
{"compound": "COc1ccc(Nc2nc(-c3cccc(N)c3)cn3ccnc23)cc1OC", "note": "[6-(3-aminophenyl)-N-(3,4-dimethoxyphenyl)imidazo[1,2-a]pyrazin-8-amine, reference compound]", "values": [{"measurement": "IC50", "setting": "[1]", "value": 809, "unit": "nM"}, {"measurement": "Hheps CL", "setting": "human hepatocytes; [2]", "value": 4, "unit": "mL/min/kg"}]}
{"compound": "Nc1cncc(-c2cn3ccnc3c(Nc3ccc(N4CCN(C5COC5)CC4)c(OCCO)c3)n2)n1", "note": "[Ex.-5, 2-(5-((6-(6-aminopyrazin-2-yl)imidazo[1,2-a]pyrazin-8-yl)amino)-2-(4-(oxetan-3-yl)piperazin-1-yl)phenoxy)ethanol]", "values": [{"measurement": "IC50", "setting": "[1]", "value": 120, "unit": "nM"}, {"measurement": "EC50", "setting": "[1]", "value": 120, "unit": "nM"}, {"measurement": "Hheps CL", "setting": "human hepatocytes; [2]", "value": 1.2, "unit": "mL/min/kg"}, {"measurement": "Hheps CL", "setting": "human hepatocytes; [3]", "value": 1.2, "unit": "mL/min/kg"}]}
{"compound": "Cc1ncc(-c2cn3ccnc3c(Nc3ccc(N4CCOCC4)cc3)n2)cc1N", "note": "[6-(5-amino-6-methylpyridin-3-yl)-N-(4-morpholinophenyl)imidazo[1,2-a]pyrazin-8-amine, reference compound]", "values": [{"measurement": "IC50", "setting": "[1]", "value": 250, "unit": "nM"}, {"measurement": "Hheps CL", "setting": "human hepatocytes; [2]", "value": 13.3, "unit": "mL/min/kg"}]}
